# Data: patent US8765705B2, “Oligonucleotides inhibiting cellular migration” (Centre National de la Recherche Scientifique, priority 2009, dated 2014)
# Entries after “also recorded” stand apart in the source; their conditions may differ. d = 2'-deoxy (DNA); r = 2'-OH (RNA)
# Key:
# TSP1 [1] = assay: TSP1 secretion in the culture medium of C4-2 cells (western blotting); assay type: cell-based, human; details: 2 h treatment
# Experimental: FIG. 2B represents TSP1 secretion in the cell culture medium by C4-2 cells treated for 2 h by vehicle (left) or thapsigargin (1 μM) (right). The secreted TSP1 is measured by western blotting in the cell culture medium. FIG. 2D represents TSP1 secretion in the cell culture medium by C4-2 cells treated for 2 h by vehicle or camphor at the indicated doses. The secreted TSP1 is measured by western blotting in the cell culture medium. FIG. 3D represents Western blot detection of TSP1 in the culture medium of C4-2 cells transfected with cont- or TSP1-siRNA 48 h after transfection.
# TSP1 mRNA = TSP1 mRNA level in C4-2 cells, real-time RT-PCR normalized to cyclophilin A; assay type: cell-based, human
# Experimental: (§1) LNCaP and C4-2 cells were grown in RMPI containing 10% fetal calf serum, PC-3 cells in DMEM containing 10% fetal calf serum. The Hiperfect reagent (Qiagen, Courtaboeuf, France) was used to transfect cells in 24 wells plates with the indicated siRNAs (10 nM) as recommended by the manufacturer. A metabolic activity assay (WST1, Roche Diagnostics, Meylan France) was used to measure cell proliferation. To mimic hypoxia, cells were grown in the presence of 300 μM cobalt chloride for 48 h. For hypoxic conditions, cells were cultured at 37° C. with 5% CO2, 94% N2 and 1% O2 in a hypoxic incubator (Binder GmbH, Tuttligen, France).
# (§2) Total RNA was isolated using TRIzol reagent (Invitrogen, Cergy Pontoise, France). RNA were retrotranscribed using a High capacity cDNA Reverse Transcription Kit (Applied Biosystems, Courtaboeuf, France). cDNA was quantified by real time PCR using the Power SYBR® Green PCR Master Mix (Applied Biosystems, Courtaboeuf, France). Human Cyclophilin A was used as an internal control. The sequences of the PCR primers are indicated in the supplementary table 2.
# TRPV3 mRNA = TRPV3 mRNA level in C4-2 cells, real-time RT-PCR; assay type: cell-based, human; details: 48 h, 300 μM
# Experimental: as §1, §2
# C4-2 cells [2] = assay: Intracellular calcium concentration, Fura-2 calcium imaging; assay type: cell-based, human; details: 300 μM
# Experimental: Fluorescence imaging was carried out in Hank's balanced salt solution (HBSS) containing 142 mM NaCl, 5.6 mM KCl, 1 mM MgCl2, 2 mM CaCl2, 0.34 mM Na2HPO4, 0.44 mM KH2PO4, 10 mM HEPES, and 5.6 mM glucose. Cytosolic calcium concentration was measured using Fura-2 loaded cells (2 μM) as previously described (Mariot et al., 2002). The intracellular calcium concentration was derived from the ratio of the fluorescence intensities for each of the excitation wavelengths (F340/F380) and from the Grynkiewicz equation (Grynkiewicz et al., 1985).
# TSP1 [3] = assay: TSP1 expression in PC3 cells exposed to CoCl2; assay type: cell-based, human
# Experimental: FIG. 4G represents the induction of VEGF (grey) and TSP1 (black) mRNA levels normalized to cyclophilin A levels in PC3 cells grown for the indicated periods in cobalt chloride as compared to the respective mRNA levels in control medium at the same time point.
# FIG. 4H represents TSP1 immunodetection in PC3 cells grown for 48 h in control conditions (N) or in the presence of 300 μM CoCl2 to mimic hypoxia (H).
# as §1
# [4] = system: TLR3, TLR7, IL6, IL12b, IFNβ, IFNγ, and IP10; assay: Induction of interferon or inflammatory cytokine genes in the spleen of nude mice, real time RT-PCR; details: five hours after one i.p. injection of 4 mg/kg in PBS
# Experimental: The mRNA level of the indicated genes, normalized to cyclophilin A, was quantified by real time RT-PCR in the spleen.
# All the injections were carried out with a dose of 4 mg/kg siRNA diluted in PBS. Five hours after injection, mRNAs coding several genes involved in innate immune response or in inflammation were quantified by quantitative real time RT-PCT.
# TSP1 [5] = assay: TSP1 protein expression in C4-2 cells (indirect immunofluorescence); assay type: cell-based, human; details: for TSP1 protein level: C4-2 cells transfected with siRNA (10 nM), 48 h after transfection
# Experimental: FIG. […]
# as §1
# C4-2 cells [6] = assay: Migration assay, modified Boyden chamber, C4-2 cells; assay type: cell-based, human; details: siRNA-transfected cells, towards fresh medium
# Experimental: The cell migration capacity can be measured in vitro using a modified Boyden Chamber. Boyden Chamber consists of two compartments separated by a permeable membrane. Cells are placed in the upper chamber and the chemotactic factors in the lower chamber. Cells migrating through the membrane are counted.
# The migration capacity was measured using a modified Boyden Chamber. Cells (40,000) were seeded in RPMI 1% FBS in the upper part of a cell culture-chamber-insert system separated from the lower chamber by a 8 μm PET membrane (BD Biosciences, Le Pont de Claix, France). RPMI 10% FBS, or conditioned medium was added in the lower compartment. Eighteen hours later, non migrating cells in the upper compartment were scrapped off using a cotton swab. Cells on the lower side of the membrane were fixed with methanol at −20° C. and stained with Hoechst 33258 (Sigma-Aldrich, Saint-Quentin Fallavier, France). Membranes were then excised, mounted on a glass side with Glycergel (DAKO) and cells counted.
# C4-2 cells [7] = assay: Cell proliferation, metabolic activity assay (WST1); assay type: cell-based, human; details: C4-2 cells transfected with siRNA
# Experimental: as §1
# C4-2 cells [8] = assay: Apoptosis, enzymatic activity of caspases 3 and 7; assay type: cell-based, human; details: for effect on apoptosis: C4-2 cells transfected with siRNA; for enzymatic activity of caspases 3 and 7 versus control: C4-2 cells, 48 h after transfection
# Experimental: FIG. 1F represents the enzymatic activity of caspases 3 and 7 measured 48 h after transfection of C4-2 cells with the TSP1a- or TSP1b-siRNA.
# [9] = C4-2 cells transfected with siRNA (10 nM), 2 days after transfection
compound,measurement,setting,value
"CC12CCC(CC1=O)C2(C)C (stereo not drawn) [camphor, reference compound]",TSP1 secretion into the culture medium,TSP1 [1],stimulated
same,TSP1 mRNA level,"TSP1 mRNA; C4-2 cells, 6 h treatment",dose dependent increase
"TRPV2: siRNA targeting TRPV2: UAAGAGUCAACCUCAACUAdTdT / UAGUUGAGGUUGACUCUUAdTdT (chain 1 UAAGAGUCAACCUCAACUATT; chain 2 UAGUUGAGGUUGACUCUUATT; sugars from the 5' end r19 d2, backbone not given here)",TSP1 mRNA level,TSP1 mRNA; [9],reduced
[Cl][Co][Cl] [cobalt chloride],TRPV3 mRNA level,TRPV3 mRNA,strongly induced
same,"intracellular calcium concentration, resting level",C4-2 cells [2]; 48 h,increased over two fold
same,"intracellular calcium concentration, resting level",C4-2 cells [2]; after 30 min,not modified
same,TSP1 expression at the mRNA level,TSP1 [3],induced
same,TSP1 expression at the protein level,"TSP1 [3]; 48 h, 300 μM",induced
same,TSP1 mRNA level,"TSP1 mRNA; C4-2 cells, 48 h, 300 μM",strongly induced
"TRPV6: siRNA targeting TRPV6: GGAAGACAGGCAAGAUCUCdTdT / GAGAUCUUGCCUGUCUUCCdTdT (chain 1 GGAAGACAGGCAAGAUCUCTT; chain 2 GAGAUCUUGCCUGUCUUCCTT; sugars from the 5' end r19 d2, backbone not given here)",TSP1 mRNA level,TSP1 mRNA; [9],reduced
Poly (I:C) [reference compound],"induction of TLR3, TLR7, IL6, IL12b, IFNβ, IFNγ, and IP10 mRNA",[4],significant increase
"C/C=C(/C)C(=O)O[C@H]1C(C)=C2[C@H]([C@@H]1OC(=O)CCCCCCC)[C@@](C)(OC(C)=O)C[C@H](OC(=O)CCC)[C@@]1(O)[C@H]2OC(=O)[C@@]1(C)O [thapsigargin, reference compound]",TSP1 in the cytosol,"TSP1 [5]; C4-2 cells, 2 h treatment, 1 μM",rapid depletion
"β3: siRNA targeting β3 integrin: GGAGAAUCUGCUGAAGGAUdTdT / AUCCUUCAGCAGAUUCUCCdTdT (chain 1 GGAGAAUCUGCUGAAGGAUTT; chain 2 AUCCUUCAGCAGAUUCUCCTT; sugars from the 5' end r19 d2, backbone not given here)",migration of C4-2 cells,C4-2 cells [6],strongly reduced
"TSP1a-siRNA: Duplex CCUUGACAACAACGUGGUGdTdT / CACCACGUUGUUGUCAAGGdTdT targeting TSP1 mRNA, sequence conserved between human and mouse (sense CCUUGACAACAACGUGGUGTT; antisense CACCACGUUGUUGUCAAGGTT; sugars from the 5' end r19 d2, backbone not given here)",effect on cell proliferation,C4-2 cells [7],no effect; also recorded: without affecting
same,TSP1 protein level,TSP1 [5],significantly reduces
same,TSP1 mRNA level,TSP1 mRNA; [9],significantly reduces
same,effect on apoptosis,C4-2 cells [8],no effect
same,enzymatic activity of caspases 3 and 7 versus control,C4-2 cells [8],not statistically different
"TSP1b-siRNA: Duplex UACCCGAGACGAUUGUAUGdTdT / CAUACAAUCGUCUCGGGUAdTdT targeting specifically the human TSP1 mRNA (sense UACCCGAGACGAUUGUAUGTT; antisense CAUACAAUCGUCUCGGGUATT; sugars from the 5' end r19 d2, backbone not given here)",effect on cell proliferation,C4-2 cells [7],no effect; also recorded: without affecting
same,TSP1 protein level,TSP1 [5],significantly reduces
same,TSP1 mRNA level,TSP1 mRNA; [9],significantly reduces
same,effect on apoptosis,C4-2 cells [8],no effect
same,enzymatic activity of caspases 3 and 7 versus control,C4-2 cells [8],not statistically different
"CD36: siRNA targeting CD36: UACAGACAGUUUUGGAUCUdTdT / AGAUCCAAAACUGUCUGUAdTdT (chain 1 UACAGACAGUUUUGGAUCUTT; chain 2 AGAUCCAAAACUGUCUGUATT; sugars from the 5' end r19 d2, backbone not given here)",migration of C4-2 cells,C4-2 cells [6],strongly reduced
